Earlier results, collected in US20210283219A1, “INHIBITION OF ALTERNATIVE COMPLEMENT PATHWAY FOR TREATMENT OF RETINAL ISCHEMIC INJURY AND GLAUCOMA” (Massachusetts Eye and Ear Infirmary, priority 2017, published 2021).

Biological target: complement factor B (Homo sapiens, UniProt P00751)
Sequence (P00751 26-764, species assumed): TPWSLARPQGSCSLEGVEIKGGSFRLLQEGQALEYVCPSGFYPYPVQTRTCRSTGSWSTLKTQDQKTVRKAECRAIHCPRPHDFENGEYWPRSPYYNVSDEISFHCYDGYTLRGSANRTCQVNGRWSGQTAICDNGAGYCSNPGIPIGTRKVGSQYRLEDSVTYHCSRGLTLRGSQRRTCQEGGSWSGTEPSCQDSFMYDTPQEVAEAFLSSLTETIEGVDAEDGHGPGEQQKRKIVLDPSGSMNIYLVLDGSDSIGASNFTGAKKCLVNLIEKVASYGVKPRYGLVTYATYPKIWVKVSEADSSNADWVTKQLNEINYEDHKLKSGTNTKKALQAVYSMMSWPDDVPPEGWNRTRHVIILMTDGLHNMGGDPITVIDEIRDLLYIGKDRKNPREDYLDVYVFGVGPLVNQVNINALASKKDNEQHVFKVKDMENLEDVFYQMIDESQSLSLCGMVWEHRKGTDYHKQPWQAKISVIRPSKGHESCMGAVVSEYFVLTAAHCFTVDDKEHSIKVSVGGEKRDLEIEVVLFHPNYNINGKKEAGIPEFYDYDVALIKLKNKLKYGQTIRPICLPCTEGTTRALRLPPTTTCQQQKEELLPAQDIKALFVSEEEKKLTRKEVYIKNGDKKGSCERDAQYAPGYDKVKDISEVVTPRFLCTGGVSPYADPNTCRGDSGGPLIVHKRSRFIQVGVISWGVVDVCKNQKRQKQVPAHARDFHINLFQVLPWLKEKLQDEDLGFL

Q: Which “inhibition of complement factor B” value does the source give for “(2S)-2-[[(2S)-2 [[(2S)-2-[[(2S)-[[(2S)-2-[[(2S)-2-acetamido-5-(diaminomethylideneamino)pentanoyl]amino]-4-methylpentanoyl]amino]-4,4-dimethylpentanoyl]amino]-4-methylpentanoyl]amino]propanoyl]amino]-5-(diaminomethylideneamino)pentanoic acid [Compound 51]” here?
A: potently inhibits
